# Measured values reported in patent US20240124510A1, “Cyclic Glycoaminoacid Derivatives” (TFCHEM, priority 2021, published 2024).
# “And” between values parts separate entries of the source, which are not always exact repeats. Identical values can stand only once.
# Legend:
# Format in all cases: cell-based
# Human dermal fibroblasts = assay: Cytotoxicity (LDH release) on dermal fibroblasts in classical condition; conditions: for Cytotoxicity (LDH release), Mean / Cytotoxicity (LDH release), Values: during 24 h after 11 days of culture, normalized by cell number; for Cytotoxicity (LDH release), Values: individual values
# Procedure: Human dermal fibroblasts were isolated from skin tissue by dermis explants seeding in Petri dishes in DMEM-20% FBS for 3 weeks. Dermal fibroblasts were then seeded in 96-well plates and then incubated in different culture conditions described below.
# Different culture conditions were realized in triplicate at least: • Positive control of cytotoxicity: cells in DMEM 1% FBS medium lysed by 0.2% triton at the end of the culture period • Control: cells in DMEM 1% FBS medium • Test: cells in DMEM 1% FBS medium added with test compound 6 and compound 44 of WO2015/140178.
# Cytotoxicity was assessed by the measurement of the lactate dehydrogenase (LDH) released by damaged cells in the culture medium (using the kit CytoTox-One Non-Radioactive Cytotoxicity Assay, G1780, Promega). Cells were treated with 0.2% of triton at the end of the culture to determine the maximal toxicity response. […]
# The results were normalized by cell number, determined by nuclei staining (with DAPI: 4′,6-Diamidino-2-Phenylindole, Dihydrochloride), and were represented in percentage of the lysis positive control. Compounds presenting a level of cytotoxicity below 20% compared to control were considered as non-toxic.
# Quantity of LDH released by cells was normalized by cell number in each culture condition. Data are represented in percentage of the positive control.
# IL-6 = IL-6 secretion in coculture of human aged fibroblasts and mature adipocytes (AM3D-FB2D, ELISA); conditions: for secretion of IL-6 in percentage of the coculture control condition, Values (%): individual replicates
# Source text: (§1) In order to evaluate its effect on fibroblast matrix and its anti-inflammatory properties, the effect of compound 6 has been tested on an adipocytes-aged fibroblasts coculture model, mimicking the interactions between dermis and hypodermis in the skin and allowed to explore in parallel the biological effects of the products on two cellular targets.
# (§2) • Experimental model: co-culture of human mature adipocytes cultured in 3D and human dermal fibroblasts cultured in 2D (AM3D-FB2D co-culture). This experimental model of AM3D-FB2D co-culture mimicked the interactions between dermis and hypodermis in the skin and allowed to explore in parallel the biological effects of the products on two cellular targets. • Donor characteristics: This study was performed on mature adipocytes and fibroblasts from two different donors (one donor for mature adipocytes and another donor for dermal fibroblasts). • Fibroblasts donor=person, BMI=28 kg/m^2 • Adipocytes donor=person, BMI=21.4 kg/m^2 • Treatment procedure: compound 6 was added to the co-culture medium daily for up to 6 days
# (§3) Dermal fibroblasts were seeded in DMEM 10% FBS at 10000 cells/well. The day after, the adipocytes capsules of 50 μl were added in suspension above the fibroblasts and the medium was changed and replaced by a specific culture medium for the co-culture AM3D-FB2D. The formation of adipocytes capsules followed an internal standardized protocol. Briefly, the fully mature adipocytes were isolated from the hypodermis after digestion by collagenase. The isolated adipocytes were then washed with a wash buffer and encapsulated in a peptidic hydrogel to form 3D adipocytes capsules of 50 μl in size. Cells were incubated at 37° C. and 5% CO2 overnight for stabilization. Treatments were initiated at DO with a medium change at DO, D2, D3 and D5. The entire culture media of 24 h incubation was collected at D3 and D6, before being centrifugated and stored at −80° C. Each culture condition was done in triplicate.
# (§4) The biochemical analyses on culture media were performed via ELISA using specific kits according to the manufacturer's recommendations: IL-6 (Duoset DY206, R&D Systems), and Hyaluronic Acid (HA) (Duoset, DY3614-05, R&D Systems and Procollagen I (Duoset, DY6220-05, R&D Systems) The results of HA and Procollagen I were normalized by fibroblasts cell number regarding the fact that these molecules were secreted mainly by fibroblasts. All the biochemical results were represented in percentage of the control condition.
# To evaluate the effect of the compound 6 on inflammation, the extracellular concentrations of IL-6, that is secreted by the fibroblasts but mainly by the adipocytes, were measured at D3 and D6.
# [1] = tested on: SOD2 gene expression in aged human fibroblasts; assay: SOD2 gene expression in aged human fibroblasts; conditions: 6 mg/ml
# Hyaluronic Acid (HA) = assay: Hyaluronic acid secretion in coculture of human aged fibroblasts and mature adipocytes (ELISA); conditions: for secretion of HA, normalized by fibroblasts number, in percentage of the coculture control condition, Values (%): individual replicates
# Source text: as §1, §2, §3, §4
# To evaluate the effect of the compound 6 on fibroblast's matrix, the extracellular concentrations of Hyaluronic Acid (HA), that is secreted only by the fibroblasts, were measured at D3 and D6.
smiles,measurement,setting,value
N[C@H]1CCCN(CC(F)(F)[C@]2(O)O[C@H](CO)[C@H](O)[C@H](O)[C@H]2O)C1=O [Compound 6],"Cytotoxicity (LDH release), Mean",Human dermal fibroblasts; 0.1 mg/ml,6.7 percentage of positive control
same,"Cytotoxicity (LDH release), Values",Human dermal fibroblasts; 0.1 mg/ml,5.9 percentage of positive control and 4.8 percentage of positive control and 6.5 percentage of positive control and 9.8 percentage of positive control
same,"Cytotoxicity (LDH release), Mean",Human dermal fibroblasts; 0.5 mg/ml,5.6 percentage of positive control
same,"Cytotoxicity (LDH release), Values",Human dermal fibroblasts; 0.5 mg/ml,7.1 percentage of positive control and 6.6 percentage of positive control and 3.1 percentage of positive control and 5.7 percentage of positive control
same,Toxicity on dermal fibroblasts,"Human dermal fibroblasts; 2 mg/ml, 0.5 mg/ml and 0.1 mg/ml",No toxicity
same,"Cytotoxicity (LDH release), Mean",Human dermal fibroblasts; 2 mg/ml,5.1 percentage of positive control
same,"Cytotoxicity (LDH release), Values",Human dermal fibroblasts; 2 mg/ml,4.2 percentage of positive control and 5.1 percentage of positive control and 5.3 percentage of positive control and 6.0 percentage of positive control
same,Protective effect on dermal fibroblasts under classical condition,Human dermal fibroblasts; all concentrations,strong protective effect
same,IL-6 secretion in percentage of the coculture control condition,"IL-6; 2 mg/ml, D3",72%
same,IL-6 secretion in percentage of the coculture control condition,"IL-6; 2 mg/ml, D6",53%
same,IL-6 secretion in percentage of the coculture control condition,"IL-6; 3 mg/ml, D3",73%
same,IL-6 secretion in percentage of the coculture control condition,"IL-6; 3 mg/ml, D6",61%
same,"secretion of IL-6 in percentage of the coculture control condition, Mean (%)","IL-6; D3, 2 mg/ml",72%
same,"secretion of IL-6 in percentage of the coculture control condition, Values (%)","IL-6; D3, 2 mg/ml",56% and 78% and 82%
same,"secretion of IL-6 in percentage of the coculture control condition, Mean (%)","IL-6; D3, 3 mg/ml",73%
same,"secretion of IL-6 in percentage of the coculture control condition, Values (%)","IL-6; D3, 3 mg/ml",75% and 63% and 79%
same,"secretion of IL-6 in percentage of the coculture control condition, Mean (%)","IL-6; D6, 2 mg/ml",53%
same,"secretion of IL-6 in percentage of the coculture control condition, Values (%)","IL-6; D6, 2 mg/ml",46% and 66% and 45%
same,"secretion of IL-6 in percentage of the coculture control condition, Mean (%)","IL-6; D6, 3 mg/ml",61%
same,"secretion of IL-6 in percentage of the coculture control condition, Values (%)","IL-6; D6, 3 mg/ml",59% and 54% and 71%
same,increased SOD2 gene expression compared to the control,[1],204%
same,"HA secretion, normalized by fibroblasts number, % of the control","Hyaluronic Acid (HA); 1 mg/ml, 3 days of treatment",140%
same,"HA secretion, normalized by fibroblasts number, % of the control","Hyaluronic Acid (HA); 1 mg/ml, 6 days of treatment",189%
same,"HA secretion, normalized by fibroblasts number, % of the control","Hyaluronic Acid (HA); 2 mg/ml, 6 days of treatment",225%
same,"HA secretion, normalized by fibroblasts number, % of the control","Hyaluronic Acid (HA); 3 mg/ml, 6 days of treatment",164%
same,"secretion of HA, normalized by fibroblasts number, in percentage of the coculture control condition, Mean (%)","Hyaluronic Acid (HA); D3, 1 mg/ml",140%
same,"secretion of HA, normalized by fibroblasts number, in percentage of the coculture control condition, Values (%)","Hyaluronic Acid (HA); D3, 1 mg/ml",127% and 123% and 169%
same,"secretion of HA, normalized by fibroblasts number, in percentage of the coculture control condition, Mean (%)","Hyaluronic Acid (HA); D3, 2 mg/ml",90%
same,"secretion of HA, normalized by fibroblasts number, in percentage of the coculture control condition, Values (%)","Hyaluronic Acid (HA); D3, 2 mg/ml",96% and 93% and 80%
same,"secretion of HA, normalized by fibroblasts number, in percentage of the coculture control condition, Mean (%)","Hyaluronic Acid (HA); D3, 3 mg/ml",85%
same,"secretion of HA, normalized by fibroblasts number, in percentage of the coculture control condition, Values (%)","Hyaluronic Acid (HA); D3, 3 mg/ml",83% and 75% and 98%
same,"secretion of HA, normalized by fibroblasts number, in percentage of the coculture control condition, Mean (%)","Hyaluronic Acid (HA); D6, 1 mg/ml",189%
same,"secretion of HA, normalized by fibroblasts number, in percentage of the coculture control condition, Values (%)","Hyaluronic Acid (HA); D6, 1 mg/ml",172% and 157% and 237%
same,"secretion of HA, normalized by fibroblasts number, in percentage of the coculture control condition, Mean (%)","Hyaluronic Acid (HA); D6, 2 mg/ml",225%
same,"secretion of HA, normalized by fibroblasts number, in percentage of the coculture control condition, Values (%)","Hyaluronic Acid (HA); D6, 2 mg/ml",240% and 233% and 203%
same,"secretion of HA, normalized by fibroblasts number, in percentage of the coculture control condition, Mean (%)","Hyaluronic Acid (HA); D6, 3 mg/ml",164%
same,"secretion of HA, normalized by fibroblasts number, in percentage of the coculture control condition, Values (%)","Hyaluronic Acid (HA); D6, 3 mg/ml",121% and 213% and 159%
